The subject of test [1] is pulmonary arteries. Description: U46619 contractile responses of pulmonary arteries. The note with it: control mice (normoxic), FIG. 9a.
For test [2], the system named is aorta. The test can be described thus: U46619 contractile responses of aorta. The note with it: control mice (normoxic), FIG. 9a.

Each structure is given as a SMILES string.

Consider 1 compound from patent US10245244B2, “Pharmaceutical formulations for the treatment of pulmonary arterial hypertension” (HEART BIOTECH PHARMA LIMITED, priority 2014, dated 2019).

On to `CCCCC[C@H](O)/C=C/[C@@H]1[C@@H](C/C=C\CCCC(=O)O)[C@H]2CO[C@@H]1C2` [U46619, 9,11-Dideoxy-9α,11α-methanoepoxy prostaglandin F2α], for which the “contraction of the pulmonary artery” value in test [1] was “less contraction”. For the same compound, the “contraction of the aorta” value in test [2] was “significant contraction”.
